In PubChem BioAssay (NCI):
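Grown in 96-well plates, cells were treated for 48 hours with each compound at five concentrations. Insufficient inhibition: endpoint recorded as highest concentration tested. The concentration for 50% growth inhibition is given as GI50. Definition used: TGI = concentration required for complete inhibition of growth.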

Assays:
Test in all cases: NCI-60 cell line screen, 48 h
M14 melanoma = tested on: M14 melanoma
SK-OV-3 ovarian = tested on: SK-OV-3 ovarian
SR leukemia = tested on: SR leukemia
NCI-H522 lung = tested on: NCI-H522 lung
MDA-MB-231 breast = tested on: MDA-MB-231 breast
TK-10 renal = tested on: TK-10 renal
OVCAR-5 ovarian = tested on: OVCAR-5 ovarian
U251 CNS = tested on: U251 CNS
K-562 leukemia = tested on: K-562 leukemia
DU-145 prostate = tested on: DU-145 prostate
NCI-H23 lung = tested on: NCI-H23 lung
ACHN renal = tested on: ACHN renal
SF-268 CNS = tested on: SF-268 CNS
SNB-75 CNS = tested on: SNB-75 CNS
LOX IMVI melanoma = tested on: LOX IMVI melanoma
MOLT-4 leukemia = tested on: MOLT-4 leukemia
SF-539 CNS = tested on: SF-539 CNS
HS 578T breast = tested on: HS 578T breast
EKVX NSCLC = tested on: EKVX NSCLC
SK-MEL-28 melanoma = tested on: SK-MEL-28 melanoma
SW-620 colon = tested on: SW-620 colon
HOP-62 NSCLC = tested on: HOP-62 NSCLC
OVCAR-3 ovarian = tested on: OVCAR-3 ovarian
NCI-H460 lung = tested on: NCI-H460 lung
OVCAR-8 ovarian = tested on: OVCAR-8 ovarian
A498 renal = tested on: A498 renal
786-0 renal = tested on: 786-0 renal
BT-549 breast = tested on: BT-549 breast
SF-295 CNS = tested on: SF-295 CNS
RPMI-8226 leukemia = tested on: RPMI-8226 leukemia
SNB-19 CNS = tested on: SNB-19 CNS
NCI/ADR-RES ovarian = tested on: NCI/ADR-RES ovarian
HOP-92 NSCLC = tested on: HOP-92 NSCLC
SK-MEL-5 melanoma = tested on: SK-MEL-5 melanoma
HCT-116 colon = tested on: HCT-116 colon
MALME-3M melanoma = tested on: MALME-3M melanoma
CAKI-1 renal = tested on: CAKI-1 renal
UO-31 renal = tested on: UO-31 renal
MCF7 breast = tested on: MCF7 breast
IGROV1 ovarian = tested on: IGROV1 ovarian
PC-3 prostate = tested on: PC-3 prostate
HT29 colon = tested on: HT29 colon
HL-60(TB) leukemia = tested on: HL-60(TB) leukemia
HCT-15 colon = tested on: HCT-15 colon
COLO 205 colon = tested on: COLO 205 colon
HCC-2998 colon = tested on: HCC-2998 colon
UACC-62 melanoma = tested on: UACC-62 melanoma
MDA-MB-435 = tested on: MDA-MB-435
NCI-H226 lung = tested on: NCI-H226 lung
RXF 393 renal = tested on: RXF 393 renal
A549 NSCLC = tested on: A549 NSCLC
OVCAR-4 ovarian = tested on: OVCAR-4 ovarian
SK-MEL-2 melanoma = tested on: SK-MEL-2 melanoma
CCRF-CEM leukemia = tested on: CCRF-CEM leukemia
SN12C renal = tested on: SN12C renal
UACC-257 melanoma = tested on: UACC-257 melanoma
T-47D breast = tested on: T-47D breast
KM12 colon = tested on: KM12 colon

`CCCN(CCC)c1ccc(CO)c(Cl)c1` gave a GI50 (M14 melanoma) of 37.5 µM, a TGI (M14 melanoma) of 97.4 µM and a GI50 (SK-OV-3 ovarian) of 31.3 µM. It also gave a TGI (SK-OV-3 ovarian) of over 100 µM, a GI50 (SR leukemia) of 19.3 µM and a TGI (SR leukemia) of 45.9 µM. The GI50 (NCI-H522 lung) was 16.4 µM, the TGI (NCI-H522 lung) was 38.9 µM and the GI50 (MDA-MB-231 breast) was 31.6 µM. For the same molecule, the TGI (MDA-MB-231 breast) was over 68.4 µM, the GI50 (TK-10 renal) was 0.223 µM and the TGI (TK-10 renal) was 0.663 µM. It also gave a GI50 (OVCAR-5 ovarian) of 0.257 µM, a TGI (OVCAR-5 ovarian) of 0.718 µM and a GI50 (U251 CNS) of 10.3 µM. It also gave a TGI (U251 CNS) of over 100 µM, a GI50 (K-562 leukemia) of 6.21 µM and a TGI (K-562 leukemia) of 37.7 µM. It also gave a GI50 (DU-145 prostate) of 52 µM, a TGI (DU-145 prostate) of over 100 µM and a GI50 (NCI-H23 lung) of 23.2 µM. It also gave a TGI (NCI-H23 lung) of over 100 µM, a GI50 (ACHN renal) of 38.5 µM and a TGI (ACHN renal) of over 100 µM. The GI50 (SF-268 CNS) was 47.3 µM, the TGI (SF-268 CNS) was over 100 µM and the GI50 (SNB-75 CNS) was 25.8 µM. It also gave a TGI (SNB-75 CNS) of over 96.7 µM, a GI50 (LOX IMVI melanoma) of 30.4 µM and a TGI (LOX IMVI melanoma) of over 100 µM. It also gave a GI50 (MOLT-4 leukemia) of 23.3 µM, a TGI (MOLT-4 leukemia) of 62.6 µM and a GI50 (SF-539 CNS) of 40.2 µM. The TGI (SF-539 CNS) was over 100 µM, the GI50 (HS 578T breast) was 25 µM and the TGI (HS 578T breast) was over 91.9 µM. For the same molecule, the GI50 (EKVX NSCLC) was 18.2 µM, the TGI (EKVX NSCLC) was 59 µM and the GI50 (SK-MEL-28 melanoma) was 42.5 µM. It also gave a TGI (SK-MEL-28 melanoma) of over 100 µM, a GI50 (SW-620 colon) of 6.41 µM and a TGI (SW-620 colon) of over 100 µM. It also gave a GI50 (HOP-62 NSCLC) of 8.25 µM, a TGI (HOP-62 NSCLC) of over 100 µM and a GI50 (OVCAR-3 ovarian) of 1.62 µM. The TGI (OVCAR-3 ovarian) was 5.07 µM, the GI50 (NCI-H460 lung) was 2.13 µM and the TGI (NCI-H460 lung) was 32.1 µM. For the same molecule, the GI50 (OVCAR-8 ovarian) was 34.9 µM, the TGI (OVCAR-8 ovarian) was over 100 µM and the GI50 (A498 renal) was 0.117 µM. For the same molecule, the TGI (A498 renal) was 0.253 µM, the GI50 (786-0 renal) was 16.8 µM and the TGI (786-0 renal) was 45.6 µM. For the same molecule, the GI50 (BT-549 breast) was 22 µM, the TGI (BT-549 breast) was over 60.2 µM and the GI50 (SF-295 CNS) was 5.45 µM. For the same molecule, the TGI (SF-295 CNS) was over 78.9 µM, the GI50 (RPMI-8226 leukemia) was 5.93 µM and the TGI (RPMI-8226 leukemia) was 28.9 µM. The GI50 (SNB-19 CNS) was over 63.8 µM, the TGI (SNB-19 CNS) was over 100 µM and the GI50 (NCI/ADR-RES ovarian) was 23.6 µM. For the same molecule, the TGI (NCI/ADR-RES ovarian) was over 89.7 µM, the GI50 (HOP-92 NSCLC) was 9.43 µM and the TGI (HOP-92 NSCLC) was 31.2 µM. The GI50 (SK-MEL-5 melanoma) was 12.9 µM, the TGI (SK-MEL-5 melanoma) was 27.3 µM and the GI50 (HCT-116 colon) was 0.44 µM. It also gave a TGI (HCT-116 colon) of 7.88 µM, a GI50 (MALME-3M melanoma) of 29.1 µM and a TGI (MALME-3M melanoma) of over 78.5 µM. It also gave a GI50 (CAKI-1 renal) of 5.77 µM, a TGI (CAKI-1 renal) of 50.6 µM and a GI50 (UO-31 renal) of 35.4 µM. It also gave a TGI (UO-31 renal) of over 100 µM, a GI50 (MCF7 breast) of 1.23 µM and a TGI (MCF7 breast) of 33 µM. For the same molecule, the GI50 (IGROV1 ovarian) was 0.401 µM, the TGI (IGROV1 ovarian) was 2.41 µM and the GI50 (PC-3 prostate) was 22.8 µM. It also gave a TGI (PC-3 prostate) of 89.6 µM, a GI50 (HT29 colon) of 9.75 µM and a TGI (HT29 colon) of over 52.4 µM. For the same molecule, the GI50 (HL-60(TB) leukemia) was 19.5 µM, the TGI (HL-60(TB) leukemia) was 44.6 µM and the GI50 (HCT-15 colon) was 20.4 µM. It also gave a TGI (HCT-15 colon) of over 80.9 µM, a GI50 (COLO 205 colon) of 3.5 µM and a TGI (COLO 205 colon) of 10.1 µM. The GI50 (HCC-2998 colon) was 13.5 µM, the TGI (HCC-2998 colon) was 48.2 µM and the GI50 (UACC-62 melanoma) was 0.485 µM. The TGI (UACC-62 melanoma) was 4.79 µM, the GI50 (MDA-MB-435) was 37.1 µM and the TGI (MDA-MB-435) was over 100 µM. The GI50 (NCI-H226 lung) was 0.166 µM, the TGI (NCI-H226 lung) was 0.419 µM and the GI50 (RXF 393 renal) was 7.37 µM. The TGI (RXF 393 renal) was 29.5 µM, the GI50 (A549 NSCLC) was 7.2 µM and the TGI (A549 NSCLC) was over 63 µM. For the same molecule, the GI50 (OVCAR-4 ovarian) was 1.21 µM, the TGI (OVCAR-4 ovarian) was 7.79 µM and the GI50 (SK-MEL-2 melanoma) was 9.47 µM. For the same molecule, the TGI (SK-MEL-2 melanoma) was 33.9 µM, the GI50 (CCRF-CEM leukemia) was 17.4 µM and the TGI (CCRF-CEM leukemia) was 51.7 µM. For the same molecule, the GI50 (SN12C renal) was 39.2 µM, the TGI (SN12C renal) was over 100 µM and the GI50 (UACC-257 melanoma) was 0.352 µM. The TGI (UACC-257 melanoma) was 1.49 µM, the GI50 (T-47D breast) was 0.459 µM and the TGI (T-47D breast) was 2.91 µM. It also gave a GI50 (KM12 colon) of 35 µM and a TGI (KM12 colon) of over 100 µM.
